A short description of experiment [1]: Displacement of methyl green from DNA (unknown origin) incubated in dark for 24 hrs.
The subject of experiment [2] is Aspergillus fumigatus. Briefly: Antifungal activity against Aspergillus fumigatus 293 after 48 hrs by two-fold serial dilution method. The conditions noted are these: Aspergillus fumigatus, 293, 48 h. The experiment is classed as functional.
Experiment [3] relates to Escherichia coli. Briefly: Antibacterial activity against Escherichia coli ATCC 12435 after 24 hrs by two-fold serial dilution method. The experiment is classed as functional. The following applies: ATCC 12435, 24 h.
For experiment [4], the system named is Staphylococcus aureus. Briefly: Antibacterial activity against Staphylococcus aureus ATCC 29213 after 24 hrs by two-fold serial dilution method. The following applies: ATCC 29213, 24 h. The experiment is classed as functional.
Experiment [5] has as its system Aspergillus flavus. Briefly: Antifungal activity against Aspergillus flavus 3375 after 48 hrs by two-fold serial dilution method. The experiment is classed as functional. The conditions noted are these: Aspergillus flavus, 3375, 48 h.
Experiment [6] deals with MCF7. Briefly: Antitumor activity against human MCF7 cells assessed as inhibition of cell proliferation after 48 hrs by MTT assay. The experiment is classed as functional, cell-based. The following applies: MCF7, 48 h. In general terms: Formazan colour is commonly taken as a measure of viable cells.
Experiment [7] concerns Chromobacterium violaceum. Briefly: Inhibition of quorum sensing system in Chromobacterium violaceum ATCC 12472 assessed as diameter of violacein pigment inhibition at 5 mg/ml after 48 hrs.
The test system of experiment [8] is HepG2. Briefly: Antitumor activity against human HepG2 cells assessed as inhibition of cell proliferation after 48 hrs by MTT assay. The conditions noted are these: HepG2, 48 h. The experiment is classed as functional, cell-based.
Experiment [9] concerns Candida albicans. Briefly: Antifungal activity against Candida albicans after 48 hrs by two-fold serial dilution method. The experiment is classed as functional.
Experiment [10] concerns Bacillus cereus. Briefly: Antibacterial activity against Bacillus cereus UW 85 after 24 hrs by two-fold serial dilution method. The experiment is classed as functional. The conditions noted are these: UW 85, 24 h.
In experiment [11] the test system is Pseudomonas aeruginosa. Briefly: Antibacterial activity against Pseudomonas aeruginosa PAO1 after 24 hrs by two-fold serial dilution method. The conditions noted are these: PAO1, 24 h. The experiment is classed as functional.
The test system of experiment [12] is HeLa. Briefly: Antitumor activity against human HeLa cells assessed as inhibition of cell proliferation after 48 hrs by MTT assay. The conditions noted are these: read-out: IC50. The experiment is classed as functional, cell-based.

Here are results for 17 compounds from ChEMBL document CHEMBL4270617, “Design, synthesis, antimicrobial, antiquorum-sensing and antitumor evaluation of new series of pyrazolopyridine derivatives” (Eur J Med Chem, 2018).

What is called IC50 is the point on the concentration scale where inhibition reaches its midpoint. By MIC is commonly meant the lowest concentration that inhibits growth of the organism.

For `CCOC(=O)C1=C(N/C=N/c2ccc(C)cc2)Nc2[nH]nc(C)c2C1c1ccc(N(C)C)cc1` (stereo not drawn), the IC50 in [1] is 76.4 µM; in [6], 50.5 µM; in experiment [8], 44.4 µM; in experiment [12], 43.2 µM. Also, the MIC was 2180 µM in experiment [2]; 2180 µM in [3]; 136 µM in [4]; 2180 µM in [5]; > 200 µg/mL in experiment [9]; 136 µM in [10]. Moreover, the lowest concentration to inhibit growth in [11] (MIC) was 2180 µM. The diameter of the inhibition zone (DIZ) in experiment [7] was < 2 mm.
Take `OC(Cn1cncn1)(Cn1cncn1)c1ccc(F)cc1F` [FLUCONAZOLE]: the MIC was > 200 µg/mL in [2]; > 200 µg/mL in experiment [3]; > 200 µg/mL in experiment [5]; 6.53 mM in experiment [9]; > 200 µg/mL in [10]; > 200 µg/mL in experiment [11].
On to `CCOC(=O)C1=C(N/N=C(\C(C)=O)C(=O)c2ccccc2)Nc2[nH]nc(C)c2C1c1ccc(N(C)C)cc1` (stereo not drawn), for which the MIC in experiment [2] amounted to 3890 µM; in experiment [3] it was 1940 µM; in experiment [4], 1940 µM; in experiment [5] it was 3890 µM; in experiment [9], 1.94 mM; in experiment [10], 1940 µM. The same compound showed an MIC in [11] of 972 µM. Moreover, the IC50 in [6] is 47.3 µM; in [8], 42.3 µM; in experiment [12], 47.4 µM. For the same compound, the diameter of the inhibition zone (DIZ) in [7] is < 2 mm.
Regarding `CCOC(=O)C1=C(N/C=N/c2ccccn2)Nc2[nH]nc(C)c2C1c1ccc(N(C)C)cc1` (stereo not drawn), the IC50 is 28 µM in [1], 37.3 µM in experiment [6], 26.2 µM in experiment [8] and 29.2 µM in experiment [12]. Further, the MIC in experiment [2] came to 281 µM; in [3], 281 µM; in experiment [4], 70.1 µM; in experiment [5] it was 281 µM; in experiment [9] it was 0.561 mM; in experiment [10] it was 70.1 µM. In experiment [11], the MIC worked out at 281 µM. The diameter of the inhibition zone (DIZ) in experiment [7] is < 2 mm.
For `CCOC(=O)C1=C(N/N=C(/Br)c2ccccc2)Nc2[nH]nc(C)c2C1c1ccc(N(C)C)cc1` (stereo not drawn), the MIC in experiment [2] amounted to 1910 µM; in experiment [3], 955 µM; in experiment [4], 955 µM; in experiment [5], 1910 µM; in experiment [9], 1.91 mM; in experiment [10], 955 µM. Moreover, the MIC in [11] was determined as 478 µM. The IC50 was found to be 78.4 µM in experiment [6], 72 µM in experiment [8] and 75.7 µM in experiment [12]. Moreover, the diameter of the inhibition zone (DIZ) in [7] came out at 11 mm.
Consider `CCOC(=O)C1=C(N/N=C(/C(=O)Br)c2ccc(Br)cc2)Nc2[nH]nc(C)c2C1c1ccc(N(C)C)cc1` (stereo not drawn), for which the IC50 in experiment [1] came out at 43.7 µM; in experiment [6], 61.3 µM; in [8], 65 µM; in experiment [12], 68.5 µM. The MIC in experiment [2] was determined as 793 µM; in [3], 397 µM; in [4] it was 99.1 µM; in [5] it was 1590 µM; in experiment [9], 0.397 mM; in [10] it was 99.1 µM. This compound also showed an MIC in [11] of 397 µM. Also, the diameter of the inhibition zone (DIZ) in experiment [7] was < 2 mm.
Consider `CCOC(=O)C1=C(N/N=C(/C#N)C(=O)OCC)Nc2[nH]nc(C)c2C1c1ccc(N(C)C)cc1` (stereo not drawn), for which the MIC in experiment [2] turned out to be 2150 µM; in [3] it was 1070 µM; in experiment [4] it was 2150 µM; in [5], 2150 µM; in [9], 0.537 mM; in experiment [10] it was 1070 µM. This compound also gave an MIC in experiment [11] of 1070 µM. In addition, the IC50 in experiment [6] is 35.6 µM; in experiment [8] it was 46.4 µM; in [12] it was 39.2 µM. Also, the diameter of the inhibition zone (DIZ) in experiment [7] was < 2 mm.
Consider `CCOC(=O)C1=C(N/N=C(/C(C)=O)C(=O)OCC)Nc2[nH]nc(C)c2C1c1ccc(N(C)C)cc1` (stereo not drawn), for which the half-inhibitory concentration (IC50) in experiment [1] was 68.2 µM; in experiment [6] it was > 100 µM; in [8] it was > 100 µM; in experiment [12] it was > 100 µM. Besides, the MIC in experiment [2] was 2070 µM; in experiment [3], 518 µM; in experiment [4] it was 2070 µM; in experiment [5], 2070 µM; in [9] it was 4.14 mM; in [10], 518 µM. The compound further gave an MIC in experiment [11] of 518 µM. In addition, in experiment [7], the diameter of the inhibition zone (DIZ) is < 2 mm.
Turning to `CCOC(=O)C1=C(N/N=C(/Cl)C#N)Nc2[nH]nc(C)c2C1c1ccc(N(C)C)cc1` (stereo not drawn), the MIC is 4670 µM in [2]; 2340 µM in [3]; > 200 µg/mL in experiment [4]; 2340 µM in experiment [5]; 4.67 mM in experiment [9]; 2340 µM in [10]. Also, the MIC in experiment [11] worked out at 1170 µM. The IC50 in [6] was 23.2 µM; in experiment [8], 23.6 µM; in [12], 26.2 µM. The diameter of the inhibition zone (DIZ) in [7] was < 2 mm.
Take `Oc1cc(O)c2c(c1)O[C@H](c1ccc(O)c(O)c1)[C@@H](O)C2`: the diameter of the inhibition zone (DIZ) in experiment [7] came to 2 mm.
For the compound `CC1(C)S[C@@H]2[C@H](NC(=O)[C@H](N)c3ccccc3)C(=O)N2[C@H]1C(=O)O` [AMPICILLIN], the MIC is 28.6 µM in experiment [3], 716 µM in [4] and 1430 µM in [10].
In turn, `COc1ccc(C2C(C#N)=C(NC(=O)c3ccccc3)Nc3[nH]nc(-c4ccccc4)c32)cc1` (stereo not drawn) gave an IC50 in experiment [1] of 39.4 to 82.8 µM.
Same read-out and setting: the same measure for `COc1ccc(C2C(C#N)=C(/N=C/OC(C)=O)Nc3[nH]nc(-c4ccccc4)c32)cc1` (stereo not drawn): 39.4 to 82.8 µM; for `COc1ccc(C2C(C#N)=C(NC(=O)/C=C/C(=O)O)Nc3[nH]nc(-c4ccccc4)c32)cc1` (stereo not drawn): 39.4 to 82.8 µM.
On to `CCOC(=O)C(=NNC1=C(C(=O)OCC)C(c2ccc(N(C)C)cc2)c2c(C)n[nH]c2N1)C(=O)OCC` (stereo not drawn), for which the MIC was 1950 µM in experiment [2]; 976 µM in experiment [3]; 976 µM in [4]; 1950 µM in experiment [5]; 3.9 mM in experiment [9]; 976 µM in experiment [10]. The MIC in experiment [11] was 976 µM. Further, the 50% inhibitory concentration (IC50) in experiment [6] is 89.8 µM; in [8] it was 80.8 µM; in [12], 83.8 µM. Also, the diameter of the inhibition zone (DIZ) in experiment [7] is < 2 mm.
For the compound `CCOC(=O)C1=C(N/N=C(\C#N)C(N)=O)Nc2[nH]nc(C)c2C1c1ccc(N(C)C)cc1` (stereo not drawn), the MIC in [2] was 4580 µM; in [3] it was 1150 µM; in experiment [4] it was 4580 µM; in [5] it was 4580 µM; in [9], 4.58 mM; in experiment [10], 2290 µM. In experiment [11], this compound displayed a minimum inhibitory concentration (MIC) of 1150 µM. In addition, the IC50 in experiment [6] worked out at 50.1 µM; in [8] it was 48.4 µM; in experiment [12], 47.3 µM. Further, the diameter of the inhibition zone (DIZ) in [7] is < 2 mm.
As for `CCOC(=O)C1=C(N/N=C(/Cl)c2ccc([N+](=O)[O-])cc2)Nc2[nH]nc(C)c2C1c1ccc(N(C)C)cc1` (stereo not drawn), the MIC in experiment [2] amounted to 1910 µM; in experiment [3], 1910 µM; in experiment [4] it was 954 µM; in experiment [5], 1910 µM; in [9] it was 3.82 mM; in [10], 1910 µM. This compound had an MIC in experiment [11] of 954 µM. The IC50 stood at 52.7 µM in [6], 55.5 µM in experiment [8] and 46.2 µM in experiment [12]. Besides, the diameter of the inhibition zone (DIZ) in [7] was < 2 mm.
